Reference: patent US20240109863A1, “2-PYRIDONE DERIVATIVE, AND PREPARATION METHOD THEREFOR AND PHARMACEUTICAL APPLICATION THEREOF” (KPC PHARMACEUTICALS, INC, priority 2020, published 2024)

Experiments:
[1] = target: T1, THRβ (Homo sapiens, UniProt P10828); test: THRβ binding assay (time-resolved FRET coactivator peptide recruitment); assay type: biochemical; settings: THRβ-LBD/RXRα, SRC2-2 coactivator peptide recruitment, 4 hours at room temperature
T1 construct: RXRα and THRβ-LBD Eu-anti-GST antibody with GST tag
Experimental: Experimental methods: In vitro analysis of the agonistic effect of compounds on THRβ was performed using time-resolved fluorescence resonance energy transfer coactivator peptide recruitment assays. The assay used biotin-SRC2-2 coactivator peptide, streptavidin-d2, RXRα and THRβ-LBD Eu-anti-GST antibody with GST tag. Eu-anti-GST antibody indirectly labeled THRβ-LBD by binding to the GST tag. Streptavidin-d2 indirectly labeled the SRC2-2 coactivator peptide by binding to the biotin tag. In the presence of RXRα, THRβ-LBD can form heterodimer THRβ-LBD/RXRα with it. […] According to the effect of different concentrations of the compound on the activity of THRβ, the agonistic ability of the compound can be evaluated.
The detailed procedure is as follows: • a. 100× reference compound or compound was prepared with DMSO, and equally diluted by 1:3. • b. 100× gradiently diluted reference compound or compound was diluted with 1× reaction buffer to 4×, which was then added to an assay plate. • c. A mixed solution of 4× THRβ-LBD and 4× RXRα was prepared with 1× reaction buffer, and added to the assay plate. • d. A mixed solution of 2× biotin-SRC2-2, 2× Eu-anti-GST, and 2× streptavidin-d2 was prepared with 1× reaction buffer, and added to the assay plate. • e. The assay plate was centrifuged at 1000 rpm for 1 min, and incubated at room temperature in the dark for 4 hours. • f.

[2] = target: T2, THRα (Homo sapiens, UniProt P10827); test: THRα binding assay (as the THRβ assay, THRβ replaced with THRα); assay type: biochemical; settings: for EC50: THRα in place of THRβ; for THRα/β selectivity (fold): ratio of THRα EC50 to THRβ EC50
T2 construct: GST

[3] = In vivo pharmacokinetics in mice; settings: male ICR mice, intragastric, single dose 3 mg/Kg
Experimental: Mice were used as test animals, and intragastrically administered with the compounds of Example 1 and Example 46, and then the drug concentrations in plasma at different time points were measured. The pharmacokinetic performance of the compounds of the present invention in mice was studied, and the drug metabolism characteristics were evaluated. In the example, healthy adult male ICR mice with similar body weight were selected, and orally administered with drugs once at a dose of 3.0 mg/kg. Whole blood was collected before the administration and 1 h, 2 h, 4 h, 6 h, 8 h, 12 h, 24 h and 48 h after the administration, respectively. LC/MS/MS method was established to determine the concentrations of prototype drugs in plasma samples. The main pharmacokinetic parameters were calculated using WinNonlin 6.3 NCA model.
Experimental drug: the compounds obtained in Example 1 and Example 46.
Experimental animals: 9 healthy adult male ICR mice, equally divided into 3 groups, 3 mice in each group, purchased from Shanghai Xipu'er-Bikai Experimental Animal Co., Ltd., with an animal certificate number: SOCK (Shanghai) 2018-0006 2018 0006 010467.
Preparation of drug: A certain amount of the compounds of Example 1 and Example 46 were accurately weighed, put into a 15 ml sample tube, wetted by 5 μL of Tween 80, and then added with 5.2 mL of 2% hydroxypropyl methylcellulose (HPMC) solution. The mixture was sonicated and mixed by vortex to obtain a homogeneous suspension. The drugs were freshly prepared just before use.
Administration: After fasting overnight, ICR mice were intragastrically administered with the drugs at a dose of 3.0 mg/kg.
Operation: The mice were intragastrically administered with the compounds of Example 1 and Example 46. Whole blood was collected before the administration and 1 h, 2 h, 4 h, 6 h, 8 h, 12 h, 24 h and 48 h after the administration, then anticoagulated with heparin sodium, and centrifuged at 4° C. for 5 min. Plasma was separated, and stored at −80° C. for determination.
Determination of the contents of the compounds to be tested in the mice plasma after intragastric administration of drugs: 12.5 μL of the mice plasma to be tested at each time point after the administration of the compounds of Example 1 and Example 46 were taken respectively, mixed in pairs, and added with 100 μL of the internal standard solution and 125 μL of methanol. The mixture was mixed by vortex for 2 min, and centrifuged at 13000 rpm for 10 min at 4° C. The supernatant was taken for LC-MS/MS analysis.

[4] = In vitro liver microsome stability assay; assay type: in vitro ADME; settings: liver microsomes, pH 7.4; human, 0.2 mg/mL liver microsomal protein, 1 μM test substance, 37° C.; read-out: Liver microsome stability (species: human): T½
Experimental: The test substance and the positive control substance verapamil were respectively dissolved with DMSO to 10 mM as a stock solution. The above 10 mM stock solution was diluted with 70% acetonitrile aqueous solution to a concentration of 0.25 mM.
An NADPH regeneration system finally containing concentrations of 6.5 mM NADP, 16.5 mM G-6-P, 3 U/mL G-6-PDH, and 3.3 mM MgCl was prepared.
Stopping solution was an acetonitrile solution containing tolbutamide and propranolol (both internal standards).
Phosphate buffer was a 100 mM K3PO4 (pH=7.4) buffer containing 3.3 mM MgCl2.
Liver microsomal incubation system was a 100 mM phosphate buffer containing 0.2 mg/mL liver microsomal protein and 1 μM test substance/positive control.
80 μL of the mixed solution from the incubation system was taken. 400 μL of the stopping solution was added to precipitate protein. The mixture was vortexed and added with 20 μL of NADPH regeneration system as the sample at 0 min.
130 μL of NADPH regeneration system was added to the remaining 520 μL of protein-drug mixed solution. The mixture was mixed well, and incubated. The final incubation system was 650 μL, containing 0.2 mg/mL liver microsomal protein, 1 μM test substance/positive control, 1.3 mM NADP, 3.3 mM G-6-P, and 0.6 U/mL G-6-PDH.
The mixed system was slowly shaken and incubated in a water bath at 37° C. 100 μL of the incubation solution was taken at 5, 10, 30, and 60 min, respectively, and added into a new 96-well plate with 400 μL of stopping solution in each well. The mixture in each well was mixed well, and the protein was precipitated by centrifuging at 4000×g for 15 minutes at 4° C.
100 μL of the supernatant was taken, and diluted with water at a ratio of 1:2. The samples were analyzed by LC-MS/MS.

T2 sequence (P10827 1-410 isoform P10827-2, other chains not shown): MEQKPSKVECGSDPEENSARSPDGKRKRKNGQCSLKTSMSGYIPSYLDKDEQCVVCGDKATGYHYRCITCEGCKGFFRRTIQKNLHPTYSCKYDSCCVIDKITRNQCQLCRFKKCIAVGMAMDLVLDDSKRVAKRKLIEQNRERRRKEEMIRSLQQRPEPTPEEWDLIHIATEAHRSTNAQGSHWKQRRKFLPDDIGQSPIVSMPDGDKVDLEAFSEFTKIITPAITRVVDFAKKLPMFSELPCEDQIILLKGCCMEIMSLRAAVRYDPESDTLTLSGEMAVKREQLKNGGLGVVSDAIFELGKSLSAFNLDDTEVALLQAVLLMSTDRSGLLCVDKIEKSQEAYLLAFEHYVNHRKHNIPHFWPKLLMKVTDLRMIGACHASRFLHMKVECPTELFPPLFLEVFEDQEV
T2 sequence (P19793 whole entry partner, other chains not shown): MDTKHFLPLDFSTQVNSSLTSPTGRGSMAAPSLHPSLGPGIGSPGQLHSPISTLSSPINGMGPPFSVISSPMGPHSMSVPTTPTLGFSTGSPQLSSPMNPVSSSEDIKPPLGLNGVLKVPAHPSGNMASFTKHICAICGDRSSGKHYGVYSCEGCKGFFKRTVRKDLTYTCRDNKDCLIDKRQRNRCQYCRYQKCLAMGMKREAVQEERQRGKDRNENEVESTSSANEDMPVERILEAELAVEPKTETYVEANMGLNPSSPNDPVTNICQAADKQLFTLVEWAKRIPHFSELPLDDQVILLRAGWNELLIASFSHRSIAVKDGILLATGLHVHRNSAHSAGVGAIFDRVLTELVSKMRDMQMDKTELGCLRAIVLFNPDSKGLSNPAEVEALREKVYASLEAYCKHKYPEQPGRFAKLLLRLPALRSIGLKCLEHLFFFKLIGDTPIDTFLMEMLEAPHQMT
T1 sequence (P10828 217-461 limits assumed, other chains not shown): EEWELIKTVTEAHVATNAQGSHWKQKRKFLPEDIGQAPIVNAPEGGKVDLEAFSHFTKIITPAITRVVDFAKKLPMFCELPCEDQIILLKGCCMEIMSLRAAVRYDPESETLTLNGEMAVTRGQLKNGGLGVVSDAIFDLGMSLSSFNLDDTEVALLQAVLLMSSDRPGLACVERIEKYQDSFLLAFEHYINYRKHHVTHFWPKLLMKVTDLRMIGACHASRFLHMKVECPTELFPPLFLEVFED
T1 sequence (P19793 whole entry partner, other chains not shown, the tested form may be a part): as the sequence (P19793 whole entry partner, other chains not shown) above

SMILES | EC50 [1] [nM] | EC50 [2] [nM] | THRα/β selectivity (fold) [2] [fold] | Peak plasma concentration [3] [ng/mL] | Area of curve ([3]; plasma) [ng·h/mL] | half-life ([3]; mouse, po, plasma) [min] | half-life at 1 μM [4] [min]
CC1CCc2c(Oc3c(Cl)cc(-n4nc(C#N)c(=O)[nH]c4=O)cc3Cl)ccc(=O)n21 (stereo not shown) [Example 46, 2-(3,5-dichloro-4-((3-methyl-5-oxo-1,2,3,5-tetrahydroindoline-8-yl)oxy)phenyl)-3,5-dioxo-2,3,4,5-tetrahydro-1,2,4-triazine-6-carbonitrile] | 102 | 930 | 9.1 | 92.37 | 1774.03 | 669 | 
N#Cc1nn(-c2cc(Cl)c(Oc3cc(F)c(=O)n(C4CCCC4)c3)c(Cl)c2)c(=O)[nH]c1=O [Example 16, 2-(3,5-Dichloro-4-((1-cyclopentyl-5-fluoro-6-oxo-1,6-dihydropyridin-3-yl)oxy)phenyl) -3,5-dioxo-2,3,4,5-tetrahydro-1,2,4-triazine-6-carbonitrile] | 370 |  |  |  |  |  | 5.1
N#Cc1nn(-c2cc(Cl)c(Oc3ccc(=O)n(-c4cccc(F)c4)c3)c(Cl)c2)c(=O)[nH]c1=O [Example 22, 2-(3,5-Dichloro-4-((1-(3-fluorophenyl)-6-oxo-1,6-dihydropyridin-3-yl)oxy)phenyl)-3,5-dioxo-2,3,4,5-tetrahydro-1,2,4-triazine-6-carbonitrile] | 20 | 669 | 33.5 |  |  |  | > 120
N#Cc1nn(-c2cc(Cl)c(Oc3cc(Cl)c(=O)n(C4CCCC4)c3)c(Cl)c2)c(=O)[nH]c1=O [Example 15, 2-(3,5-Dichloro-4-[(5-chloro-1-cyclopentyl-6-oxo-1,6-dihydropyridin-3-yl)oxy]phenyl) -3,5-dioxo-2,3,4,5-tetrahydro-1,2,4-triazine-6-carbonitrile] | 793 |  |  |  |  |  | 11.5
[2H]C1(n2cc(Oc3c(Cl)cc(-n4nc(C#N)c(=O)[nH]c4=O)cc3Cl)ccc2=O)CCCC1 [Example 14] | 30 | 600 | 20.0 |  |  |  | 4.6
N#Cc1nn(-c2cc(Cl)c(Oc3ccc(=O)n(C4CCCCC4)c3)c(Cl)c2)c(=O)[nH]c1=O [Example 9, 2-(3,5-Dichloro-4-((1-cyclohexyl-6-oxo-1,6-dihydropyridin-3-yl)oxy)phenyl)-3,5-dioxo-2,3,4,5-tetrahydro-1,2,4-triazine-6-carbonitrile] | 12 |  |  |  |  |  | 7
N#Cc1nn(-c2cc(Cl)c(Oc3ccc(=O)n(C4CCC4)c3)c(Cl)c2)c(=O)[nH]c1=O [Example 3, 2-(3,5-dichloro-4-[(1-cyclobutyl-6-oxo-1,6-dihydropyridin-3-yl)oxy]phenyl)-3,5-dioxo-2,3,4,5-tetrahydro-1,2,4-triazine-6-carbonitrile] | 23 | 290 | 12.6 |  |  |  | 62.8
N#Cc1nn(-c2cc(Cl)c(Oc3ccc(=O)n(CC4CCCC4)c3)c(Cl)c2)c(=O)[nH]c1=O [Example 5, 2-(3,5-Dichloro-4-((1-(cyclopentylmethyl)-6-oxo-1,6-dihydropyridin-3-yl)oxy)phenyl) -3,5-dioxo-2,3,4,5-tetrahydro-1,2,4-triazine-6-carbonitrile] | 20 |  |  |  |  |  | 2.1
N#Cc1nn(-c2cc(Cl)c(Oc3ccc(=O)n(C4CCCC4=O)c3)c(Cl)c2)c(=O)[nH]c1=O (stereo not shown) [Example 4, 2-(3,5-dichloro-4-((6-oxo-1-(2-oxocyclopentyl)-1,6-dihydropyridin-3-yl)oxy)phenyl)-3,5-dioxo-2,3,4,5-tetrahydro-1,2,4-triazine-6-carbonitrile] | 561 |  |  |  |  |  | 110
N#Cc1nn(-c2cc(Cl)c(Oc3ccc(=O)n(-c4ccccc4)c3)c(Cl)c2)c(=O)[nH]c1=O [Example 20, 2-(3,5-dichloro-4-((6-oxo-1-phenyl-1,6-dihydropyridin-3-yl)oxy)phenyl)-3,5-dioxo-2,3,4,5-tetrahydro-1,2,4-triazine-6-carbonitrile] | 88 | 4180 | 47.5 |  |  |  | > 120
O=c1[nH]c(=O)n(-c2cc(Cl)c(Oc3ccc(=O)n(-c4ccccc4)c3)c(Cl)c2)nc1CF [Example 35, 2-(3,5-dichloro-4-((6-oxo-1-phenyl-1,6-dihydropyridin-3-yl)oxy)phenyl)-6-(fluoromethyl)-1,2,4-triazine-3,5(2H, 4H)-dione] | 6 | 220 | 36.7 |  |  |  | > 120
N#Cc1nn(-c2cc(Cl)c(Oc3ccc(=O)n(C4CC4)c3)c(Cl)c2)c(=O)[nH]c1=O [Example 10, 2-(3,5-Dichloro-4-((1-cyclopropyl-6-oxo-1,6-dihydropyridin-3-yl)oxy)phenyl)-3,5-diox o-2,3,4,5-tetrahydro-1,2,4-triazine-6-carbonitrile] | 107 |  |  |  |  |  | > 120
Cc1cc(Oc2c(Cl)cc(-n3nc(C#N)c(=O)[nH]c3=O)cc2Cl)cn(C2CCCC2)c1=O [Example 17, 2-(3,5-Dichloro-4-[(1-cyclopentyl-5-methyl-6-oxo-1,6-dihydropyridin-3-yl)oxy]phenyl) -3,5-dioxo-2,3,4,5-tetrahydro-1,2,4-triazine-6-carbonitrile] | 450 |  |  |  |  |  | 3.2
N#Cc1nn(-c2cc(Cl)c(Oc3ccc(=O)n(C4=CCCC4)c3)c(Cl)c2)c(=O)[nH]c1=O [Example 11, 2-(3,5-Dichloro-4-((1-(cyclopentyl-1-en-1-yl)-6-oxo-1,6-dihydropyridin-3-yl)oxy)phenyl)-3,5-dioxo-2,3,4,5-tetrahydro-1,2,4-triazine-6-carbonitrile] | 17 | 236 | 13.9 |  |  |  | 41.6
N#Cc1nn(-c2cc(Cl)c(Oc3ccc(=O)n(C4CCCC4)c3)c(Cl)c2)c(=O)[nH]c1=O [Example 12] | 18 |  |  |  |  |  | 4.4
